For series [1], the target named is T1, CYP1A2 (Homo sapiens, UniProt P05177).
T1 construct: purchased
Kind of series: Incubation assay with recombinant CYP (Vivid kit). The note with it: recombinant enzyme, Vivid substrate. The format is biochemical. As to the method:
(§1) Possible interactions of examined PARPi with human CYP3A4, CYP2C8, CYP2D6, CYP1A2, CYP2B6, CYP2C9, CYP2C19, and CYP3A5 were evaluated using commercial Vivid CYP450 Screening Kits. […] CYP isoenzymes were mixed with the NADPH-regeneration system, and resulting solutions were added to the wells. After 10 min preincubation, the solution of NADP ^+ and a particular Vivid substrate were added to start the CYP-catalyzed reaction. Fluorescence corresponding to the levels of produced metabolites was detected using the microplate reader Infinite […] (Tecan, Männedorf, Switzerland) in a kinetic mode (1-minute intervals). The data from the 15 min interval were selected to analyze the results.

Series [2] addresses T2, CYP2B6 (Homo sapiens, UniProt P20813).
T2 construct: purchased
Kind of series: Incubation assay with recombinant CYP (Vivid kit). The format is biochemical. The following applies: recombinant enzyme, Vivid substrate. As to the method:
as §1

Series [3] has as its target T3, CYP2C19 (Homo sapiens, UniProt P33261).
T3 construct: purchased
Kind of series: Incubation assay with recombinant CYP (Vivid kit). The note with it: recombinant enzyme, Vivid substrate. The format is biochemical. As to the method:
as §1

In series [4] the target is T4, CYP2C8 (Homo sapiens, UniProt P10632).
T4 construct: purchased
T4 sequence (P10632 whole entry): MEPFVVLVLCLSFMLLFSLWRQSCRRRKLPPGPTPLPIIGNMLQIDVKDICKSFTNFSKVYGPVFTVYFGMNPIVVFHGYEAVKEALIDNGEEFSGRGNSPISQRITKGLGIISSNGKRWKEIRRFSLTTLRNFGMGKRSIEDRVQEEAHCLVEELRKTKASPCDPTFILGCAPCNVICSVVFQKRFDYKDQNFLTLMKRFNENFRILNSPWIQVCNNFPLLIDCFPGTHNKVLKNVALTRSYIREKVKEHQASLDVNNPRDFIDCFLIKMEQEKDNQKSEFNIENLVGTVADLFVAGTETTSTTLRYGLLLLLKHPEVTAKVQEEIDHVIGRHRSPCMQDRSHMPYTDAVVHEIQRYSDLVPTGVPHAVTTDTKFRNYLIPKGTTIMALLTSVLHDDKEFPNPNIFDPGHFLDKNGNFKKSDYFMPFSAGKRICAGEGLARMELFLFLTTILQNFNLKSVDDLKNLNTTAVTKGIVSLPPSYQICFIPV
Kind of series: Incubation assay with recombinant CYP (Vivid kit). The class given is biochemical. The following applies: recombinant enzyme, Vivid substrate. How it is done:
as §1

The target of series [5] is T5, CYP2C9 (Homo sapiens, UniProt P11712).
T5 construct: purchased
T5 sequence (P11712 whole entry): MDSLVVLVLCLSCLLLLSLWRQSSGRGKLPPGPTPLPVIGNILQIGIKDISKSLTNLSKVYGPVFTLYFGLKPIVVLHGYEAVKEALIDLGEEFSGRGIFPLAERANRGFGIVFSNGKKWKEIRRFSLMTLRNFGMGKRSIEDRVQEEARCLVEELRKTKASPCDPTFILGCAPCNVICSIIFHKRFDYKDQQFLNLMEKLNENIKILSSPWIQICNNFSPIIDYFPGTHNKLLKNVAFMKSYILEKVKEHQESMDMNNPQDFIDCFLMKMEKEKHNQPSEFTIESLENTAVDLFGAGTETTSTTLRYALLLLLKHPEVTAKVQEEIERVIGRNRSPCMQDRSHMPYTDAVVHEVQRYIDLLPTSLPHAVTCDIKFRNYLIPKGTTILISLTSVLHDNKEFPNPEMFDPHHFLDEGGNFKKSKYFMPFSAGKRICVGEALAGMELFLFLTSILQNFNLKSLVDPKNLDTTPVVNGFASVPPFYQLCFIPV
Kind of series: Incubation assay with recombinant CYP (Vivid kit). The following applies: recombinant enzyme, Vivid substrate. The class given is biochemical. As to the method: as §1

Series [6] deals with T6, CYP2D6 (Homo sapiens, UniProt P10635).
T6 construct: purchased
T6 sequence (P10635 whole entry): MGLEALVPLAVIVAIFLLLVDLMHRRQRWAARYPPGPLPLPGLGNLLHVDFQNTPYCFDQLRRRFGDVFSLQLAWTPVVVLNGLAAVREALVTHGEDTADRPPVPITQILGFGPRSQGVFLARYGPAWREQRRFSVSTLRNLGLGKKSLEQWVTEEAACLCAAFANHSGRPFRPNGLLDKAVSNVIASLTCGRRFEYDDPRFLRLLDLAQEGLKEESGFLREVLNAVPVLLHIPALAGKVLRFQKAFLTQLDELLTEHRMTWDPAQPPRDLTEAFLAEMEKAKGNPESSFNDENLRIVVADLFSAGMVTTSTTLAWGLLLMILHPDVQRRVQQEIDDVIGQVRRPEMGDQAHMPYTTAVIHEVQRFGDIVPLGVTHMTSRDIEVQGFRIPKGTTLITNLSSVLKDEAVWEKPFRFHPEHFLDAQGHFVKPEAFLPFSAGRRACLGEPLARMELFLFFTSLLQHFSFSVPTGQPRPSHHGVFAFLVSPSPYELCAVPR
Description: Incubation assay with recombinant CYP (Vivid kit). The class given is biochemical. The note with it: recombinant enzyme, Vivid substrate. As to the method: as §1

The target of series [7] is T7, CYP3A5 (Homo sapiens, UniProt P20815).
T7 construct: purchased
T7 sequence (P20815 whole entry): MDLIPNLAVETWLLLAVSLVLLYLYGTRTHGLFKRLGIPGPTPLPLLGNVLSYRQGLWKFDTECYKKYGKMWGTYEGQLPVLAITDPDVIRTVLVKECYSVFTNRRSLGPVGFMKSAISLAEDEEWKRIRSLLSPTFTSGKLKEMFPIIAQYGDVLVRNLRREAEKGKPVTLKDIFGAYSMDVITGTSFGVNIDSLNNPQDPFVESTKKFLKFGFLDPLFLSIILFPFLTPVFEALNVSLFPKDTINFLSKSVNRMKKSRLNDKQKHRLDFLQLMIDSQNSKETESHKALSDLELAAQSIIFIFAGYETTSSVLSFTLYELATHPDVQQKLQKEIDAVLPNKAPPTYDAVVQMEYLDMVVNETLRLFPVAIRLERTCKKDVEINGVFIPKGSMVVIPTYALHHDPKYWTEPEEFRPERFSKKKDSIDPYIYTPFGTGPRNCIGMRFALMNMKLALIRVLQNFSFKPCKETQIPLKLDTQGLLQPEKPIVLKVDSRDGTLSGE
Description: Incubation assay with recombinant CYP (Vivid kit). The class given is biochemical. The following applies: recombinant enzyme, Vivid substrate. How it is done: as §1

Series [8] has as its system ABCG2. The following applies: Abcg2-knockout mice, MDCKII-ABCG2 cells; cited from earlier work.

Bounds are passed on as bounds.

Consider 1 molecule from paper PMC9697930 (International Journal of Molecular Sciences, 2022).

T1 sequence (P05177 whole entry): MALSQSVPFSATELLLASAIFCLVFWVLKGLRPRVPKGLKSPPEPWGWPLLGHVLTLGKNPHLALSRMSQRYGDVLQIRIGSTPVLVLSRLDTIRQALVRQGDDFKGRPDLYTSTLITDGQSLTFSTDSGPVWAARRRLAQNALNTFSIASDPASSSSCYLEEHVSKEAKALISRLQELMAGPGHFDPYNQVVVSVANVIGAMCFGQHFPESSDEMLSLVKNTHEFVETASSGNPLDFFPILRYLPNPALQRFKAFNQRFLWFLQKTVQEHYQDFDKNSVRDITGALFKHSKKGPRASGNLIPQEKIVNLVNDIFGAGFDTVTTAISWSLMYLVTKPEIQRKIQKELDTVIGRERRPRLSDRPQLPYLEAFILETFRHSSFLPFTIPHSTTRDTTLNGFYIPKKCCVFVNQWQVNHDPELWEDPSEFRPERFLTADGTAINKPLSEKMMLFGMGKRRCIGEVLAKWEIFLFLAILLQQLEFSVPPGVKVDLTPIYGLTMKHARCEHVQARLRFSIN
T3 sequence (P33261 whole entry): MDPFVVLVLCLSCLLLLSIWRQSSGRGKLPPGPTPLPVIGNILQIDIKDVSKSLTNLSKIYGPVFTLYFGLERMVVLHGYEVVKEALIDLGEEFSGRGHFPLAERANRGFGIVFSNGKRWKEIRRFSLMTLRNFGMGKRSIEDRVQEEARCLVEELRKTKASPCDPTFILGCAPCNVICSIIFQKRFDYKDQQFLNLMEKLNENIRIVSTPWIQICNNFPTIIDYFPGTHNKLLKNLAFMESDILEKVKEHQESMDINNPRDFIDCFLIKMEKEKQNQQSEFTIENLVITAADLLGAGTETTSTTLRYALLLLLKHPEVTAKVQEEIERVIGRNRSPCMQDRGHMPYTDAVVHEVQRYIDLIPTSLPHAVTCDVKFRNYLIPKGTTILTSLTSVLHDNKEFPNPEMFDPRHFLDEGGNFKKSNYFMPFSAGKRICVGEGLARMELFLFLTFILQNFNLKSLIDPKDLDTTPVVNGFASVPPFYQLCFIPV
T2 sequence (P20813 whole entry): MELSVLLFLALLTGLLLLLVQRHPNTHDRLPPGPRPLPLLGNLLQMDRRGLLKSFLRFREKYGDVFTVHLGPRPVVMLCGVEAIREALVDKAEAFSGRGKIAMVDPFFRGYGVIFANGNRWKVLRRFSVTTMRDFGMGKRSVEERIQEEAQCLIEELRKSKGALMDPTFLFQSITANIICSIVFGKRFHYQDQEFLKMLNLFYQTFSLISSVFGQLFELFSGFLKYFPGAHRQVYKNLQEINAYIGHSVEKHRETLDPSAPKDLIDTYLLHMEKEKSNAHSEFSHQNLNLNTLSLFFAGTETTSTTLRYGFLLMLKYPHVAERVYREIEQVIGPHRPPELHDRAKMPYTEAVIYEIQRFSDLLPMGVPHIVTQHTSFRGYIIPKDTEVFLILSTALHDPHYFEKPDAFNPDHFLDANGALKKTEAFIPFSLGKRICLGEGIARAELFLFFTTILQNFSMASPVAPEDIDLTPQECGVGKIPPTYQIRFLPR

As usually defined, the IC50 is the concentration that gives 50% inhibition. Regarding `Cn1ncnc1[C@H]1c2n[nH]c(=O)c3cc(F)cc(c23)N[C@@H]1c1ccc(F)cc1` [talazoparib, Talazoparib], the IC50 in series [1], in series [2], in series [3], in series [4], in series [5] and in series [6] was > 50 µM throughout. The IC50 in series [7] was > 50 µM. In addition, the ABCG2 substrate status entry in series [8] is recorded as “not of ABCG2”.
